{"source": "patent US20150111771A1", "about": "“Method for Identifying Agents Capable of Inducing Respiratory Sensitization and Array and Analytical Kits for Use in the Method” (SENZAGEN AB, priority 2012, published 2015)", "key": {"MUTZ-3 cells [1]": {"tested_on": "MUTZ-3 cells", "experiment": "GARD transcriptional profiling of stimulated MUTZ-3 with GARD Respiratory Prediction Signature (PCA / SVM classification)", "details": "for Transcriptional profile in PCA based on GRPS, by mechanistic subdomain: 24 h stimulation, 302 GRPS transcripts (FIG. 5B, 5C)", "procedure": "Cultures were maintained at 200.000 cells/ml during expansion, with a media change every 3-4 days. No differentiating steps were performed and instead, the proliferating progenitor MUTZ-3 was used for stimulations. Prior to each experiment, the cells were immunophenotyped using flow cytometry as a quality control. Cells were seeded in 6-well plates at 200.000 cells/ml. Stock solutions of each compound were prepared in either DMSO or distilled water, and were subsequently diluted so the in-well concentrations corresponded to the GARD input concentration, and in-well concentrations of DMSO were 0.1%. Cells were incubated for 24 h at 37° C. and 5% CO2. Thereafter, cells were harvested and analyzed by flow cytometry. In parallel, harvested cells were lysed in TRIzol reagent (Invitrogen) and stored at −20° C. until RNA extraction. Stimulations with chemicals were performed in three individual experiments, so that triplicates samples were obtained.\nIn short, a phenotypic control of MUTZ-3 was performed prior to chemical stimulation. Stimulated cells were harvested and RNA was isolated. A control of the maturity state of the cells was performed by flow cytometric analysis of CD86. Preparation of cDNA and hybridization, washing and scanning of the Human Gene 1.0 ST Arrays (Affymetrix, Santa Clara, Calif., USA) was performed, according to standardized protocols provided by the manufacturer (Affymetrix).\nIn short, microarray data were normalized and quality checked with the RMA algorithm, using Affymetrix Expression Console (Affymetrix). […] The biological relevance of the GRPS was explored using Ingenuity Pathways Analysis (IPA) (Ingenuity Systems, Inc. Mountain View, USA), by performing a ‘Core Analysis’. […] Biological relevance was established by exploring the Canonical Pathways associated with input molecules.\nThe data set was divided into a training set and a test set, consisting of 70% and 30%, of the chemical compounds, respectively. The division was performed randomly, while maintaining the proportions of sensitizers and non-sensitizers in each subset at the same ratio as in the complete data set. A test biomarker signature was identified in the training set, using ANOVA filtering and backward elimination, as described above.\nIn addition, the test set contained nine samples of DMSO and unstimulated controls respectively. […] Any samples included in this analysis are inappropriate to include in a test set due to the risk of over fitting."}, "[2]": {"tested_on": "respiratory sensitization", "details": "cited from earlier work"}, "[3]": {"experiment": "Max solubility of reference chemicals in cell medium", "details": "given for non-toxic compounds insoluble at 500 μM"}, "[4]": {"tested_on": "CD86 expression of MUTZ-3 cells", "experiment": "CD86 expression of MUTZ-3 cells following chemical stimulation (flow cytometry)", "format": "cell-based, human", "details": "24 h at GARD input concentration; student's t-test vs corresponding vehicle, p<0.05, n=3", "procedure": "FIG. 4: CD86 expression of MUTZ-3 cells following chemical stimulations. Data shown is an average of (chemical stimulations, n=3, DMSO and unstimulated cells (n=6), with error bars showing standard deviation. Statistical significance was determined by student's t-test, comparing each stimulation with its corresponding vehicle, with p<0.05 indicated by *.\nBr J Haematol 2007, 138(3):281-290). […] Thereafter, cells were harvested and analyzed by flow cytometry.\nAll cell surface staining and washing steps were performed in PBS containing 1% BSA (w/v). Cells were incubated with specific mouse mAbs for 15 min at 4° C. The following mAbs were used for flow cytometry: FITC-conjugated CD1a (DakoCytomation, Glostrup, Denmark), CD34, CD86, and HLA-DR (BD Biosciences), PE-conjugated CD14 (DakoCytomation), CD54 and CD80 (BD Biosciences). Mouse IgG1, conjugated to FITC or PE were used as isotype controls (BD Biosciences) and PI was used to assess cell viability. […]\nPrior to chemical challenge, the cells were quality controlled by measuring the cellular expression of common myeloid and dendritic cell markers using flow cytometry. […] Following chemical stimulation, the general maturity state of the cells was controlled again, as determined by the expression of the co-stimulatory marker CD86, with results presented in FIG. 4. […]"}, "MUTZ-3 cells [5]": {"tested_on": "MUTZ-3 cells", "experiment": "Cytotoxicity by propidium iodide staining, relative viability of stimulated cells (Rv90)", "format": "cell-based, human", "details": "concentration yielding 90% relative viability", "procedure": "All chemicals were from Sigma-Aldrich, St. Louis, Mo., USA. Compounds were dissolved in either dimethyl sulfoxide (DMSO) or distilled water."}, "[6]": {"details": "external test set, biological triplicates, mapped into PCA space of train data (FIG. 6A)"}, "[7]": {"details": "clinical observations in humans"}}, "note": "Read-outs that look alike come from different tables or passages of the source.", "data": [{"molecule": "Oc1ccccc1", "note": "[phenol]", "values": [{"measurement": "Position of external test set samples in PCA plot based on the GRPS", "setting": "MUTZ-3 cells [1]; [6]", "result": "correctly grouped together with non-sensitizers"}]}, {"molecule": "CC(C)O", "note": "[Isopropanol]", "values": [{"measurement": "Classification of reference chemical as respiratory sensitizer or non-sensitizer", "setting": "[2]; [7]", "result": "non-sensitizers"}]}, {"molecule": "CCCCCCCC/C=C\\CCCCCCCC(=O)OCCOCC(OCCO)C1OCC(OCCO)C1OCCO", "note": "(centres unmarked) [Tween 80, polyoxyethylene (20) sorbitan monooleate]", "values": [{"measurement": "Classification of reference chemical as respiratory sensitizer or non-sensitizer", "setting": "[2]; [7]", "result": "non-sensitizers"}]}, {"molecule": "CCCCO", "note": "[1-Butanol]", "values": [{"measurement": "Classification of reference chemical as respiratory sensitizer or non-sensitizer", "setting": "[2]", "result": "non-sensitizers"}]}, {"molecule": "O=C=NCCCCCCN=C=O", "note": "[Hexamethylen diisocyanate]", "values": [{"measurement": "Max solubility", "setting": "[3]", "result": 100, "unit": "µM"}, {"measurement": "CD86 expression following chemical stimulation", "setting": "[4]", "result": "statistically significant upregulation of CD86"}, {"measurement": "Classification of reference chemical as respiratory sensitizer or non-sensitizer", "setting": "[2]; [7]", "result": "respiratory sensitizers"}]}, {"molecule": "O=Cc1ccccc1", "note": "[benzaldehyde]", "values": [{"measurement": "Position of external test set samples in PCA plot based on the GRPS", "setting": "MUTZ-3 cells [1]; [6]", "result": "correctly grouped together with non-sensitizers"}]}, {"molecule": "CCOC(=O)c1ccccc1C(=O)OCC", "note": "[diethyl phtalate]", "values": [{"measurement": "Position of external test set samples in PCA plot based on the GRPS", "setting": "MUTZ-3 cells [1]; [6]", "result": "correctly grouped together with non-sensitizers"}]}, {"molecule": "O=C1C=CC(=O)O1", "note": "[Maleic Anhydride]", "values": [{"measurement": "Classification of reference chemical as respiratory sensitizer or non-sensitizer", "setting": "[2]", "result": "respiratory sensitizers"}]}, {"molecule": "OCC(O)CO", "note": "[glycerol]", "values": [{"measurement": "Position of external test set samples in PCA plot based on the GRPS", "setting": "MUTZ-3 cells [1]", "result": "correctly grouped together with non-sensitizers"}]}, {"molecule": "O=S(=O)([O-])[O-].[Zn+2]", "note": "[Zinc sulphate]", "values": [{"measurement": "Classification of reference chemical as respiratory sensitizer or non-sensitizer", "setting": "[2]; [7]", "result": "non-sensitizers"}]}, {"molecule": "[Cl][Pt-2]([Cl])([Cl])([Cl])([Cl])[Cl].[NH4+].[NH4+]", "note": "[Ammonium hexachloroplatinate]", "values": [{"measurement": "Transcriptional profile in PCA based on GRPS, by mechanistic subdomain", "setting": "MUTZ-3 cells [1]", "result": "most extreme transcriptional changes"}, {"measurement": "Max solubility", "setting": "[3]", "result": 35, "unit": "µM"}, {"measurement": "Classification of reference chemical as respiratory sensitizer or non-sensitizer", "setting": "[2]; [7]", "result": "respiratory sensitizers"}]}, {"molecule": "CCCCCCCC(=O)O", "note": "[octanoic acid]", "values": [{"measurement": "Position of external test set samples in PCA plot based on the GRPS", "setting": "MUTZ-3 cells [1]", "result": "correctly grouped together with non-sensitizers"}]}, {"molecule": "O=C=Nc1ccc(Cc2ccc(N=C=O)cc2)cc1", "note": "[Methylene diphenol diisocyanate]", "values": [{"measurement": "Max solubility", "setting": "[3]", "result": 50, "unit": "µM"}, {"measurement": "Classification of reference chemical as respiratory sensitizer or non-sensitizer", "setting": "[2]; [7]", "result": "respiratory sensitizers"}]}, {"molecule": "Clc1ccccc1", "note": "[Chlorobenzene]", "values": [{"measurement": "Position of external test set samples in PCA plot based on the GRPS", "setting": "MUTZ-3 cells [1]; [6]", "result": "correctly grouped together with non-sensitizers"}, {"measurement": "Max solubility", "setting": "[3]", "result": 98, "unit": "µM"}, {"measurement": "Classification of reference chemical as respiratory sensitizer or non-sensitizer", "setting": "[2]", "result": "non-sensitizers"}]}, {"molecule": "CCCCCCCCCCCCOS(=O)(=O)[O-].[Na+]", "note": "[sodium dodecyl sulphate]", "values": [{"measurement": "Position of external test set samples in PCA plot based on the GRPS", "setting": "MUTZ-3 cells [1]; [6]", "result": "correctly grouped together with non-sensitizers"}]}, {"molecule": "COC(=O)c1ccccc1O", "note": "[Methyl salicylate]", "values": [{"measurement": "Classification of reference chemical as respiratory sensitizer or non-sensitizer", "setting": "[2]; [7]", "result": "non-sensitizers"}]}, {"molecule": "O=CCCCC=O", "note": "[Glutaraldehyde]", "values": [{"measurement": "Transcriptional profile in PCA based on GRPS, by mechanistic subdomain", "setting": "MUTZ-3 cells [1]", "result": "groups closely with both acid anhydrides and diisocyanates"}, {"measurement": "CD86 expression following chemical stimulation", "setting": "[4]", "result": "statistically significant upregulation of CD86"}, {"measurement": "Classification of reference chemical as respiratory sensitizer or non-sensitizer", "setting": "[2]; [7]", "result": "respiratory sensitizers"}, {"measurement": "Rv90", "setting": "MUTZ-3 cells [5]", "result": 10, "unit": "µM"}]}, {"molecule": "O=C(O)c1ccccc1O", "note": "[salicylic acid]", "values": [{"measurement": "Position of external test set samples in PCA plot based on the GRPS", "setting": "MUTZ-3 cells [1]", "result": "correctly grouped together with non-sensitizers"}]}, {"molecule": "O=C(O)c1ccc2c(c1)C(=O)OC2=O", "note": "[Trimellitic anhydride]", "values": [{"measurement": "Max solubility", "setting": "[3]", "result": 150, "unit": "µM"}, {"measurement": "Classification of reference chemical as respiratory sensitizer or non-sensitizer", "setting": "[2]; [7]", "result": "respiratory sensitizers"}]}, {"molecule": "CC(O)CO", "note": "(centres unmarked) [Propylene glycol]", "values": [{"measurement": "Classification of reference chemical as respiratory sensitizer or non-sensitizer", "setting": "[2]; [7]", "result": "non-sensitizers"}]}, {"molecule": "O=C1OC(=O)c2ccccc21", "note": "[Phtalic Anhydride]", "values": [{"measurement": "Max solubility", "setting": "[3]", "result": 200, "unit": "µM"}, {"measurement": "Classification of reference chemical as respiratory sensitizer or non-sensitizer", "setting": "[2]; [7]", "result": "respiratory sensitizers"}]}, {"molecule": "N.N.O=S(=O)(O)OOS(=O)(=O)O", "note": "[Ammonium persulfate]", "values": [{"measurement": "Transcriptional profile in PCA based on GRPS, by mechanistic subdomain", "setting": "MUTZ-3 cells [1]", "result": "most extreme transcriptional changes"}, {"measurement": "Classification of reference chemical as respiratory sensitizer or non-sensitizer", "setting": "[2]", "result": "respiratory sensitizers"}]}]}
